We go through 1 compound from EP2502917A1, “Solid state crystalline forms of 4-(2-ethyl-5-fluoro-2,3-dihydro-1H-inden-2-yl)-1H-imidazole” (Santhera Pharmaceuticals (Schweiz) AG, priority 2011, dated 2012).

Data set [1] is described as follows: Thermodynamic stability of polymorphs (differential scanning calorimetry). It counts as physicochemical. The conditions noted are these: enantiotropic pair: form A is the low temperature form, form D the high temperature form. The protocol:
Both forms can be converted into each other, accordingly, forms A and D represent an enantiotropic pair of polymorphs whereby form A is the low temperature form and form D the high temperature form. Differential Scanning Calorimetry (DSC): DSC measurements were carried out on a Perkin Elmer DSC-7. The samples were placed into gold crucibles that were sealed under nitrogen. The measurements were performed with a heating rate of 10 or 20 °C min^-1 over the temperature range from -50 °C to about 200°C.
(In general: Differential scanning calorimetry records heat flow against a reference as temperature is scanned.)

Data set [2] in a line: Aqueous solubility by UV/Vis spectroscopy (extinction at 270 nm) of the filtered suspension. The conditions noted are these: remaining solid is form A, aliquot diluted by a factor of 500, extinction at 270 nm. It counts as physicochemical. The protocol:
A suspension of 118 mg fipamezole hydrochloride form B in 1 mL H2O is stirred at room temperature for two days. […] An aliquot of the solution is diluted with water by a factor of 500 and analyzed by UVNis spectroscopy.
A suspension of 97 mg fipamezole hydrochloride form B* in 0.5 mL H2O is stirred at room temperature for two days. […] An aliquot of the solution is diluted with water by a factor of 500 and analyzed by UVNis spectroscopy.
A suspension of 110 mg fipamezole hydrochloride form D in 0.5 mL H2O is stirred at room temperature for two days. […] An aliquot of the solution is diluted with water by a factor of 500 and analyzed by UVNis spectroscopy.

In general, solubility refers to the dissolved amount per volume that the medium holds. Higher therefore signals much dissolved substance.

With `CCC1(c2c[nH]cn2)Cc2ccc(F)cc2C1.Cl` (stereo not shown) [form A, 4-(2-Ethyl-5-fluoro-2,3-dihydro-1H-inden-2-yl)-1H-imidazole hydrochloride], the thermodynamic stability result in data set [1] is “high thermodynamic stability”. Further, the aqueous solubility entry was “about 43 g/L” in data set [2] (suspension of form B* in H2O stirred at room temperature for two days) and “about 46 g/L” in data set [2] (suspension of form D in H2O stirred at room temperature for two days). Moreover, in data set [2] (water, thermodynamic from solid, suspension of form B in H2O stirred at room temperature for two days), the solubility at 2 days is about 46 mg/mL.
